The results in this text go back to patent US11529350B2, “Tyrosine kinase non-receptor 1 (TNK1) inhibitors and uses thereof” (Sumitomo Pharma Oncology, Inc., priority 2019, dated 2022).

Experiment [1] relates to phospho-STAT5 in L540 cells. The experiment in a line: In vitro pSTAT5 assay (ELISA) in L540 cells. The note with it: Homo sapiens, L-540, 24 hours, normalized to cell viability, read-out: P-STAT5 Assay IC50. The class given is cell-based. On the procedure: The L540 cell line harbors a truncating mutation in the C-terminal regulatory region of the protein. As a consequence, TNK1 in L540 cells is constitutively active in phosphorylating key proteins, including STAT5. In TNK1 wild-type conditions (e.g., K562 CML cells), STAT5 phosphorylation is achieved in a TNK1-independent fashion. As such, reductions in phospho-STAT5 signal specific to the L540 cells are a good readout of TNK1 inhibitor function.
Methods: The in vitro pSTAT5 assay was performed with STAT5 AB (pY964/699) SimpleStep ELISA Kit (Abcam No. ab176656) according to the manufacturer's protocol. Briefly, L540 cells were grown in RPMI1640 media under standard culture conditions (10% FBS with penicillin/streptomycin). To assess test compound effects, cells were plated in 96 well plates (250,000 cells/mL) and allowed to grow overnight. Cells were subsequently treated with varying concentrations of test compound for 24 hours, before being harvested and interrogated with the STAT5 AB (pY964/699) SimpleStep ELISA Kit according to the manufacturer's protocol. Phospho-STAT5 signal was normalized to cell viability, as assessed by the CellTiter-Glo assay (Promega, Cat. No. G7570) on treated cells. TNK1 inhibitor IC50s were determined using Graphpad Prism software on normalized phospho-STAT5 measurements.
In general terms: ELISA stands for enzyme-linked immunosorbent assay.

Experiment [2] concerns the target T1, TNK1 (Homo sapiens, UniProt Q13470).
T1 sequence (Q13470 1-666): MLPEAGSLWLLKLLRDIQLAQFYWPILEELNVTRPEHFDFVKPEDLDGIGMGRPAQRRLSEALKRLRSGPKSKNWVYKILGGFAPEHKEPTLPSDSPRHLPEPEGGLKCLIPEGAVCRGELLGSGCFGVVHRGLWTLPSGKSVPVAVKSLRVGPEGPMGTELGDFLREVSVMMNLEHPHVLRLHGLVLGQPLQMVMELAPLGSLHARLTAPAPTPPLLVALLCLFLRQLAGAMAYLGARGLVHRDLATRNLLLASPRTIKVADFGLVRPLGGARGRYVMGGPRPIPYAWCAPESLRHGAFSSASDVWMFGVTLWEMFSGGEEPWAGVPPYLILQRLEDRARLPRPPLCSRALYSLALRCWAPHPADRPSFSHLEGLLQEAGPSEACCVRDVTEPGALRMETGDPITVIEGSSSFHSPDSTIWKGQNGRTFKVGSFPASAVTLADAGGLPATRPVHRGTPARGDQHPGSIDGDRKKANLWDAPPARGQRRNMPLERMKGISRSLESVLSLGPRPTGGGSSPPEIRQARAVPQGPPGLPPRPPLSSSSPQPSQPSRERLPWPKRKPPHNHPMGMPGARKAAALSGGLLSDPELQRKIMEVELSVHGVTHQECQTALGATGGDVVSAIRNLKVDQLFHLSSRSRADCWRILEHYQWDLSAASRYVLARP
The experiment in a line: RBC HotSpot Kinase Assay. The format is biochemical. Particulars: ATP 10 μM. More on the design: purchased Reaction Biology Corp., Malvern, Pa. On the procedure: The RBC HotSpot Kinase assay (Reaction Biology Corp., Malvern, Pa.) was used to evaluate the ability of test compounds to modulate (e.g., inhibit) the enzymatic activity of human TNK1 (UniProt Accession No. Q13470) in the following reaction:
Reagent: Base Reaction buffer; 20 mM Hepes (pH 7.5), 10 mM MgCl2, 1 mM EGTA, 0.02% Brij35, 0.02 mg/ml BSA, 0.1 mM Na3VO4, 2 mM DTT, 1% DMSO. Required cofactors were added individually to each kinase reaction.
Compound handling: Test compounds were dissolved in 100% DMSO to specific concentration. The serial dilution was conducted by Integra Viaflo Assist in DMSO.
1. Prepared substrate (peptide substrate, poly[Glu:Tyr] (4:1), 0.2 mg/ml; ATP 10 μM) in freshly prepared Reaction Buffer;
2. Delivered any required cofactors to the substrate solution;
3. Delivered kinase (TNK1) into the substrate solution and gently mixed;
4. Delivered compounds in 100% DMSO into the kinase reaction mixture by Acoustic technology (Echo550; nanoliter range), incubated for 20 minutes at room temperature;
5. Delivered ^33P-ATP (specific activity 10 μCi/μl) into the reaction mixture to initiate the reaction;
6. Incubated for 2 hours at room temperature;
7. Detected radioactivity by filter-binding method;
8. Kinase activity data were expressed as the percent remaining kinase activity in test samples compared to vehicle (dimethyl sulfoxide) reactions. IC50 values and curve fits were obtained using Prism (GraphPad Software).

The target of experiment [3] is T1, TNK1. As to the kind of experiment: TNK1 NanoBRET target engagement assay (HEK293). The class given is cell-based. More on the design: host or cells: HEK293. Particulars: HEK293 cells, 2 hours; read-out: NanoBRET TE Assay (HEK293) IC50. The source says:
The NanoBRET target engagement (TE) assay (Promega, Madison, Wis.) enables the interrogation of the displacement of a tracer compound in the active site of a recombinant kinase by a test compound in the intracellular setting. The assay enables simultaneous testing of permeability, solubility, and kinase inhibition, and tests the specific interaction of test agents with a kinase of interest, here, TNK1. The assay is based on the principle of bioluminescence resonance energy transfer (BRET). In the assay, a plasmid-encoded, luciferase-tagged form of TNK1 is transfected into cells. A tracer compound is tagged with a fluorophore that fluoresces when bound to the TNK1 protein. Readout is luminescence and fluorescence. Test compounds show activity by displacing the tracer, thus disrupting BRET.
Methods: The TNK1 NanoBRET TE assays were performed according to the manufacturer's protocol. Briefly, Nanoluc-TNK1 Fusion Vector (Promega, Madison, Wis., Cat. No. NV2181) was transfected into HEK293 cells in bulk (8×10^6 cells in a T175 flask). Up to 30 hours post-transfection, cells were harvested by trypsinization, resuspended at a concentration of 2×10^5 cells/mL, and seeded in 96-well plates at 85 μL/well. A test compound and the K5 tracer were added to each well, and the cells were incubated for 2 hours. Luminescence ([…]) and fluorescence ([…]) were measured to determine a BRET ratio. IC50 values were determined from the BRET ratios using the Graphpad Prism software (GraphPad Software, San Diego, Calif.).

A value given as a limit tells only on which side of the number the result lay.

A word on the IC50: it is the concentration that inhibits the measured activity by half. Turning to `COc1cc(N2CCN(C)CC2)c(C)cc1Nc1ncc(Cl)c(Nc2cccnc2N2CCCCC2)n1` [Example No. 14, 5-chloro-N2-(2-methoxy-5-methyl-4-(4-methylpiperazin-1-yl)phenyl)-N4-(2-(piperidin-1-yl)pyridin-3-yl)pyrimidine-2,4-diamine], the results for the 50% inhibitory concentration (IC50) (in experiment [1]; at TNK1 [2]; on TNK1 [3]) were above 50 nM, 15 to 50 nM and above 1000 nM, respectively.
Taken in the same sequence, the figures for `COc1cc(N2CCN(C)CC2)c(C)cc1Nc1ncc(Cl)c(Nc2cccnc2N2CCCCC2=O)n1` [Example No. 15, 1-(3-((5-chloro-2-((2-methoxy-5-methyl-4-(4-methylpiperazin-1-yl)phenyl)amino)pyrimidin-4-yl)amino)pyridin-2-yl)piperidin-2-one] were above 50 nM, 15 to 50 nM and 150 to 1000 nM.
The like results for `COc1cc(N2CCN(C)CC2)c(C)cc1Nc1ncc(Cl)c(Nc2cccnc2N2CCCC2)n1` [compound 8, 5-chloro-N^2-(2-methoxy-5-methyl-4-(4-methylpiperazin-1-yl)phenyl)-N^4-(2-(pyrrolidin-1-yl)pyridin-3-yl)pyrimidine-2,4-diamine] were, in that order, 5 to 50 nM, below 5 nM and 150 to 1000 nM.
The molecule `CN1CCN(c2c(Cl)cc(Nc3ncc(Cl)c(Nc4cccnc4N4CCCC4=O)n3)c3cccnc23)CC1` [Example No. 24, 1-(3-((5-chloro-2-((7-chloro-8-(4-methylpiperazin-1-yl)quinolin-5-yl)amino)pyrimidin-4-yl)amino)pyridin-2-yl)pyrrolidin-2-one] displayed an IC50 on TNK1 [2] below 5 nM.
For the molecule `COc1cc(N2CCN(C)CC2)c(C)cc1Nc1ncc(Br)c(Nc2ccncc2N(C)C)n1` [Example No. 25, 5-bromo-N-(3-(dimethylamine)pyridin-4-yl)-N-(2-methoxy-5-methyl-4-(4-methylpiperazin-1-yl)phenyl)pyrimidine-2,4-diamine], at TNK1 [2], the concentration for half-maximal inhibition (IC50) is below 5 nM.
With `CN1CCN(c2c(Cl)cc(Nc3ncc(Cl)c(Nc4cccnc4N(C)C)n3)c3ccccc23)CC1` [compound 7, 5-chloro-N^2-(3-chloro-4-(4-methylpiperazin-1-yl)naphthalen-1-yl)-N^4-(2-(dimethylamino)pyridin-3-yl)pyrimidine-2,4-diamine], the 50% inhibitory concentration (IC50) was 5 to 50 nM in experiment [1], below 5 nM at TNK1 [2] and above 1000 nM on TNK1 [3].
In turn, `COc1cc(N2CCNCC2)c(Cl)cc1Nc1ncc(Cl)c(Nc2cccnc2N2CCCC2=O)n1` [Example No. 28, 1-(3-((5-chloro-2-((5-chloro-2-methoxy-4-(piperazin-1-yl)phenyl)amino)pyrimidin-4-yl)amino)pyridin-2-yl)pyrrolidin-2-one] showed a half-maximal inhibitory concentration (IC50) at TNK1 [2] below 5 nM.
With `CN1CCN(c2ccc(Nc3ncc(Cl)c(Nc4cccnc4N(C)C)n3)c3ccccc23)CC1` [Example No. 17, 5-chloro-N4-(2-(dimethylamino)pyridin-3-yl)-N2-(4-(4-methylpiperazin-1-yl)naphthalen-1-yl)pyrimidine-2,4-diamine], the IC50 in experiment [1] is above 50 nM; at TNK1 [2] it was 5 to 15 nM; on TNK1 [3] it was above 1000 nM.
`COc1cc(N2CCN(C)CC2)c(Cl)cc1Nc1ncc(Br)c(Nc2cccnc2N(C)C)n1` [Example No. 22, 5-bromo-N-(5-chloro-2-methoxy-4-(4-methylpiperazin-1-yl)phenyl)-N-(2-(dimethylamino)pyridin-3-yl)pyrimidine-2,4-diamine] had an IC50 at TNK1 [2] below 5 nM.
The molecule `[2H]C([2H])([2H])N1CCN(c2cc(OC)c(Nc3ncc(Cl)c(Nc4cccnc4N4CCCC4=O)n3)cc2Cl)CC1` [Example No. 29, 1-(3-((5-chloro-2-((5-chloro-2-methoxy-4-(4-(methyl-d3)piperazin-1-yl)phenyl)amino)pyrimidin-4-yl)amino)pyridin-2-yl)pyrrolidin-2-one] yielded an IC50 against TNK1 [2] below 5 nM.
With `COc1cc(N2CCN(C)CC2)c(C)cc1Nc1ncc(C(C)=O)c(Nc2cccnc2N(C)C)n1` [Example No. 12, 1-(4-((2-(dimethylamino)pyridin-3-yl)amino)-2-((2-methoxy-5-methyl-4-(4-methylpiperazin-1-yl)phenyl)amino)pyrimidin-5-yl)ethan-1-one], the half-maximal inhibitory concentration (IC50) in experiment [1] is above 50 nM; against TNK1 [2] it was 15 to 50 nM; at TNK1 [3], above 1000 nM.
Turning to `COc1cc(N2CCN(C)CC2)c(C)cc1Nc1ncc(C#N)c(Nc2cccnc2N(C)C)n1` [Example No. 20], the half-inhibitory concentration (IC50) on TNK1 [2] lay within 5 to 15 nM; on TNK1 [3] it was 150 to 1000 nM.
As for `[2H]C([2H])([2H])N(c1ncccc1Nc1nc(Nc2cc(C)c(N3CCN(C)CC3)cc2OC)ncc1Br)C([2H])([2H])[2H]` [Example No. 27, N^4-(2-(bis(methyl-d3)amino)pyridin-3-yl)-5-bromo-N-(2-methoxy-5-methyl-4-(4-methylpiperazin-1-yl)phenyl)pyrimidine-2,4-diamine], the IC50 against TNK1 [2] is below 5 nM.
Still for that read-out and setting: the same measure for `COc1cc(N2CCN(CCO)CC2)c(Cl)cc1Nc1ncc(Cl)c(Nc2cccnc2N2CCCC2=O)n1` [compound 30, 1-(3-((5-chloro-2-((5-chloro-4-(4-(2-hydroxyethyl)piperazin-1-yl)-2-methoxyphenyl)amino)pyrimidin-4-yl)amino)pyridin-2-yl)pyrrolidin-2-one]: below 5 nM; for `CN1CCN(c2c(Cl)cc(Nc3ncc(Cl)c(Nc4cccnc4N4CCCC4=O)n3)c3c2CCCO3)CC1` [Example No. 26, 1-(3-((5-chloro-2-((6-chloro-5-(4-methylpiperazin-1-yl)chroman-8-yl)amino)pyrimidin-4-yl)amino)pyridin-2-yl)pyrrolidin-2-one]: below 5 nM.
Same read-out and setting: to `COc1cc(N2CCN(C)CC2)c(Cl)cc1Nc1ncc(Br)c(Nc2cccnc2N2CCCC2=O)n1` [Example No. 23, 1-(3-((5-bromo-2-((5-chloro-2-methoxy-4-(4-methylpiperazin-1-yl)phenyl)amino)pyrimidin-4-yl)amino)pyridin-2-yl)pyrrolidin-2-one] belongs below 5 nM.
